Data taken from patent CN113698460A, “一种大肠杆菌lipid A结合基元PCK及其制备方法与应用” (priority 2021, dated 2021).
No end group written: not given here.

Tested on: 北京鸭红细胞
Test: Hemolysis of red blood cells
Format: cell-based, Peking duck

| Molecule | Hemolysis rate (berberine alone, concentration not given) [%] | Toxicity to Peking duck red blood cells (PCK 0.5-128 μg/mL) |
| --- | --- | --- |
| COc1ccc2cc3[n+](cc2c1OC)CCc1cc2c(cc1-3)OCO2 [小檗碱] | 1 |  |
| SYPMYARRFLFKWGLLR-NH2 [PCK, Ser Tyr Pro Met Tyr Ala Arg Arg Phe Leu Phe Lys Trp Gly Leu Leu Arg-NH2] |  | 没有毒性 |
